Results from ChEMBL document CHEMBL6121005 (Eur J Med Chem, 2025).
pIC50: −log10 of the molar value. Active and inactive are the calls of the source. The rule behind the calls is not given here.

How the values were obtained:
Cholinesterase [1] = target: T1, Cholinesterase (Homo sapiens, UniProt P06276); test: Inhibition of human serum BuChE using butyrylthiocholine iodide as substrate at 10 uM incubated for 10 mins followed by substrate addition by DTNB reagent based Ellman's method relative to control
Cholinesterase [2] = target: T1, Cholinesterase; test: Inhibition of human serum BuChE using butyrylthiocholine iodide as substrate incubated for 10 mins followed by substrate addition by DTNB reagent based Ellman's method
Acetylcholinesterase = Acetylcholinesterase (Homo sapiens, UniProt P22303); test: Inhibition of human erythrocytes AChE measured after 10 mins by Ellman's method
PC-12 [3] = test: (§1) Neuroprotective activity against H2O2-induced rat PC12 cells assessed as protection against H2O2-induced apoptosis by measuring late apoptotic cells at 50 uM pretreated for 2 hrs followed by H2O2 addition and measured after 24 hrs by Annexin V-FITC/PI staining based flow cytometry analysis (reference value: 7.26 %); type: functional; details: time 26 hrs
PC-12 [4] = test: as §1, with “necrotic” for “late apoptotic”, “0.99” for “7.26”; type: functional; details: time 26 hrs
PC-12 [5] = test: as §1, with “early” for “late”, “0.88” for “7.26”; type: functional; details: time 26 hrs
PC-12 [6] = test: as §1, with “viable” for “late apoptotic”, “90.8” for “7.26”; type: functional; details: time 26 hrs
[7] = Inhibition of H2O2-induced ROS release in rat PC12 cells assessed as mean fluorescence intensity at 50 uM preincubated for 2 hrs followed by H2O2 addition and measured after 24 hrs by DCFH-DA based flow cytometry analysis (reference value: 23904); type: functional, PC-12; details: time 26 hrs
Mus musculus [8] = test: Antialzheimer activity against amyloid beta (1 to 42)-induced ICR mouse cognitive deficit model assessed as increase in alternation performance at 5 mg/kg, po administered daily and measured on day 12 by Y-maze test relative to control; type: functional; details: time 12 day
Mus musculus [9] = test: Antialzheimer activity against scopolamine-induced ICR mouse cognitive deficit model assessed as decrease in movement distance at 2.5 to 10 mg/kg, po administrated daily and measured on last day of training by Morris water maze test; type: functional, organism-based; details: dose 2.5-10 mg/kg
Mus musculus [10] = test: Antialzheimer activity in amyloid beta (1 to 42 residues) induced ICR mouse assessed as increase in distance travelled within target quadrant at 5 mg/kg, po administered daily and measured after 15 to 19 days by Morris water maze test; type: functional, organism-based; details: time 15-19 day
Mus musculus [11] = test: Antialzheimer activity against amyloid beta (1 to 42)-induced ICR mouse memory impairment model assessed as mean escape latency at 2.5 to 10 mg/kg, po administered daily and measured after 15 to 19 days by Morris water maze test; type: functional, organism-based; details: dose 2.5-10 mg/kg, time 15-19 day
Mus musculus [12] = test: Antialzheimer activity against scopolamine-induced ICR mouse cognitive deficit model assessed as decrease in latency time at 2.5 to 10 mg/kg, po administrated daily and measured on last day of training by Morris water maze test; type: functional, organism-based; details: dose 2.5-10 mg/kg
Mus musculus [13] = test: Antialzheimer activity in amyloid beta (1 to 42 residues) induced ICR mouse assessed as increase in time spent within target quadrant at 5 mg/kg, po administered daily and measured after 15 to 19 days by Morris water maze test; type: functional, organism-based; details: time 15-19 day
Mus musculus [14] = test: Antialzheimer activity against scopolamine-induced ICR mouse cognitive deficit model assessed as latency time at 2.5 to 10 mg/kg, po administrated daily and measured on initial day of training by Morris water maze test; type: functional; details: dose 2.5-10 mg/kg
Mus musculus [15] = test: Antialzheimer activity in amyloid beta (1 to 42 residues) induced ICR mouse memory impairment model assessed as increase in trajectory after platform removal at 2.5 to 10 mg/kg, po administered daily and measured after 15 to 19 days by Morris water maze test; type: functional, organism-based; details: dose 2.5-10 mg/kg, time 15-19 day
PC-12 [16] = test: Cytoprotective against rat PC12 cells assessed as cell viability at 50 uM preincubated for 24 hrs and measured after 4 hrs by CCK-8 assay; type: functional, cell-based
Mus musculus [17] = test: Antialzheimer activity against amyloid beta (1 to 42)-induced ICR mouse memory impairment model assessed as decrease in movement distance at 2.5 to 10 mg/kg, po administered daily and measured after 15 to 19 days by Morris water maze test; type: functional, organism-based; details: dose 2.5-10 mg/kg, time 15-19 day
Mus musculus [18] = test: Antialzheimer activity in scopolamine-induced ICR mouse assessed as increase in trajectory within target quadrant at 2.5 to 10 mg/kg, po administered daily and measured after 16 to 20 days by Morris water maze test; type: functional, organism-based; details: dose 2.5-10 mg/kg, time 16-20 day

T1 sequence (P06276 whole entry): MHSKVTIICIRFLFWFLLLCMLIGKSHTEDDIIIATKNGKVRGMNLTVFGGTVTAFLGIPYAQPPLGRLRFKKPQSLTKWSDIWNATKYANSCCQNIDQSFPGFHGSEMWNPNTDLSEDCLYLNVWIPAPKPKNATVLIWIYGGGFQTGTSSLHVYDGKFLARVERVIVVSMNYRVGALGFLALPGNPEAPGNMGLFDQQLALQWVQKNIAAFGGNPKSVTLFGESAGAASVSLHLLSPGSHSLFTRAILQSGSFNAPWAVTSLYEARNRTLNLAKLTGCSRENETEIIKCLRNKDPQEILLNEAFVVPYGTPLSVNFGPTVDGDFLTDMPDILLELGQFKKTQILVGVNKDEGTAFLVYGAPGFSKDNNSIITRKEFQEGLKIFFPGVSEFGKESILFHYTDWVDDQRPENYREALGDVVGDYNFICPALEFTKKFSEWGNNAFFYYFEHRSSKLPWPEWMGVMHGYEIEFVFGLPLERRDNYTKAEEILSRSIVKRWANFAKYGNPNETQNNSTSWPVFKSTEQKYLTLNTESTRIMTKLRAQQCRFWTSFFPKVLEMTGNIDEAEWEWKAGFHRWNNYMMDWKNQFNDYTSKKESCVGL
Acetylcholinesterase, sequence (P22303 whole entry): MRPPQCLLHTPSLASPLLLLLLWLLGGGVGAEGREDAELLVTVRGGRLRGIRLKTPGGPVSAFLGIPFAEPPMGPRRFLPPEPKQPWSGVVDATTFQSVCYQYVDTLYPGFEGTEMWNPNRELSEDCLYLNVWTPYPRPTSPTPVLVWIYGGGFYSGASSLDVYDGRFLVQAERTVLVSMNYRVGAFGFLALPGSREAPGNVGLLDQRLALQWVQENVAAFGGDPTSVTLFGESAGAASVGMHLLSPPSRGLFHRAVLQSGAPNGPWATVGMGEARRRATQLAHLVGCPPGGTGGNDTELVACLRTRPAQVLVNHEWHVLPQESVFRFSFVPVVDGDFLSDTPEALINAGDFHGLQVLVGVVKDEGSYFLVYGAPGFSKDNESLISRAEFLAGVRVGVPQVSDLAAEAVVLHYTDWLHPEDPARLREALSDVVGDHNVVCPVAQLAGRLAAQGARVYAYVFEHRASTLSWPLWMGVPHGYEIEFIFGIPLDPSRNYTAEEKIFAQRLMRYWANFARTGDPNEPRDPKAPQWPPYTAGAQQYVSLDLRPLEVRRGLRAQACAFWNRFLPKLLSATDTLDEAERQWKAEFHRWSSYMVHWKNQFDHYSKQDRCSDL

SMILES: COc1ccc2c3c1O[C@H]1C[C@@H](OC(=O)NC4CCN(Cc5ccc(Cl)cc5)CC4)C=C[C@@]31CCN(C)C2
- inhibition (Cholinesterase [1]): 30.2%

SMILES: COc1ccc2c3c1O[C@H]1C[C@@H](OC(=O)NCc4ccc(OC(F)(F)F)cc4)C=C[C@@]31CCN(C)C2
- inhibition (Cholinesterase [1]): 18.2%

SMILES: COc1ccc2c3c1O[C@H]1C[C@@H](OCc4ccc(Cc5cccc(F)c5)cn4)C=C[C@@]31CCN(C)C2
- pIC50 (Cholinesterase [2]): 6.13
- inhibition (Cholinesterase [1]): 92.3%

SMILES: COc1ccc2c3c1O[C@H]1C[C@@H](OC(=O)NCc4ccc([N+](=O)[O-])cc4)C=C[C@@]31CCN(C)C2
- inhibition (Cholinesterase [1]): 6.23%

SMILES: COc1ccc2c3c1O[C@H]1C[C@@H](OC(=O)NCc4ccc5[nH]ccc5c4)C=C[C@@]31CCN(C)C2
- inhibition (Cholinesterase [1]): 3.54%

SMILES: COc1ccc2c3c1O[C@H]1C[C@@H](OC(=O)NC4CCN(Cc5ccc(F)cc5F)CC4)C=C[C@@]31CCN(C)C2
- pIC50 (Acetylcholinesterase): 5.92
- inhibition (Cholinesterase [1]): 19.9%

SMILES: COc1ccc2c3c1O[C@H]1C[C@@H](OCc4ccc(Cc5ccccc5)cn4)C=C[C@@]31CCN(C)C2
- pIC50 (Cholinesterase [2]): 5.82
- inhibition (Cholinesterase [1]): 91.2%

SMILES: COc1ccc2c3c1O[C@H]1C[C@@H](OC(=O)NCc4cccc(F)c4)C=C[C@@]31CCN(C)C2
- inhibition (Cholinesterase [1]): 14.6%

SMILES: Oc1ccc(/C=C/c2cc(O)cc(O)c2)cc1 [RESVERATROL]
- Activity (PC-12 [3]): 6.38%
- Activity (PC-12 [4]): 1.79%
- Activity (PC-12 [5]): 3.58%
- Activity (PC-12 [6]): 88.3%
- Flu intensity [7]: 29540

SMILES: COc1ccc2c3c1O[C@H]1C[C@@H](OCc4ccc(Cc5ccc(F)cc5)cn4)C=C[C@@]31CCN(C)C2
- pIC50 (Cholinesterase [2]): 6.00
- inhibition (Cholinesterase [1]): 90.3%

SMILES: COc1ccc2c3c1O[C@H]1C[C@@H](OCc4ccc(Cc5ccc(Cl)cc5)cn4)C=C[C@@]31CCN(C)C2
- pIC50 (Cholinesterase [2]): 5.99
- inhibition (Cholinesterase [1]): 88.7%

SMILES: COc1ccc2c3c1O[C@H]1C[C@@H](OC(=O)NC4CCN(Cc5cccc(C(F)(F)F)c5)CC4)C=C[C@@]31CCN(C)C2
- pIC50 (Acetylcholinesterase): 6.22
- inhibition (Cholinesterase [1]): 25.1%

SMILES: COc1ccc2c3c1O[C@H]1C[C@@H](O)C=C[C@@]31CCN(C)C2 [GALANTAMINE]
- Activity (Mus musculus [8]): 72.92%
- Activity (Mus musculus [9]): Active
- Activity (Mus musculus [10]): Active
- Activity (PC-12 [3]): 17.3%
- Activity (Mus musculus [11]): Active
- Activity (PC-12 [4]): 1.89%
- Activity (Mus musculus [12]): Active
- Activity (Mus musculus [13]): Active
- Time (Mus musculus [14]): 60 s
- Activity (Mus musculus [15]): Active
- Activity (PC-12 [5]): 11.5%
- Activity (PC-12 [16]): Active
- Activity (PC-12 [6]): 70.8%
- Activity (Mus musculus [17]): Active
- Flu intensity [7]: 89205
- Activity (Mus musculus [18]): Active

SMILES: COc1ccc(Cc2ccc(CO[C@H]3C=C[C@@]45CCN(C)Cc6ccc(OC)c(c64)O[C@H]5C3)nc2)cc1
- pIC50 (Cholinesterase [2]): 5.88
- inhibition (Cholinesterase [1]): 87%

SMILES: COc1ccc2c3c1O[C@H]1C[C@@H](OC(=O)NCc4ccccc4F)C=C[C@@]31CCN(C)C2
- inhibition (Cholinesterase [1]): 18.4%

SMILES: COc1ccc2c3c1O[C@H]1C[C@@H](OC(=O)NC4CCN(Cc5ccc(C)cc5)CC4)C=C[C@@]31CCN(C)C2
- inhibition (Cholinesterase [1]): 28.7%

SMILES: COc1ccc2c3c1O[C@H]1C[C@@H](OC(=O)NCc4cc(F)cc(F)c4)C=C[C@@]31CCN(C)C2
- inhibition (Cholinesterase [1]): 4.56%

SMILES: COc1ccc2c3c1O[C@H]1C[C@@H](OC(=O)NC4CCN(Cc5ccccc5F)CC4)C=C[C@@]31CCN(C)C2
- pIC50 (Acetylcholinesterase): 6.39
- inhibition (Cholinesterase [1]): 21.6%

SMILES: COc1ccc2c3c1O[C@H]1C[C@@H](OC(=O)NC4CCN(Cc5ccc(C#N)cc5)CC4)C=C[C@@]31CCN(C)C2
- inhibition (Cholinesterase [1]): 21.3%
